For assay [1], the target named is T1, SL2-1 (Streptomyces rapamycinicus, UniProt A0ABR6LWE4).
T1 construct: gene BJY27_006859; monomer with three ~40-residue repeats
T1 sequence (A0ABR6LWE4 31-188): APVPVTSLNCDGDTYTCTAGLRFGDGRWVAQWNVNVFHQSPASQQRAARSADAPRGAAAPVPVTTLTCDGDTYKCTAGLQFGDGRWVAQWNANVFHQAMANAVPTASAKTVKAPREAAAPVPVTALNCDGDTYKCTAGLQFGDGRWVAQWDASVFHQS
The assay can be described thus: isothermal titration calorimetry. The note with it: 20 mM sodium phosphate pH 7.4, 25 °C. The assay is classed as binding. From the text: isothermal titration calorimetry on SL2-1
A general note: ITC needs no label: the signal is the heat of the interaction.

The target in assay [2] is T1, SL2-1. Briefly: lectin capture in Microcon-30 filter, UPLC-HILIC-FLR. The note with it: labelled compound (2-AB); mixture of four glycans, 4 pmol each, 20 μg SL2-1, 10 mM Tris-HCl pH 8.0, room temperature; proteinase K elution. The class given is binding.

As to `CC(=O)N[C@H]1[C@H](O[C@H]2[C@H](O)[C@@H](NC(C)=O)C(O)O[C@@H]2CO[C@@H]2O[C@@H](C)[C@@H](O)[C@@H](O)[C@@H]2O)O[C@H](CO)[C@@H](O)[C@@H]1O` (stereo partly drawn) [N2F, α1-6 fucosylated chitobiose], binding at SL2-1 [1] (n = 2.01) was put at a Kd of 1.59 µM.
Take `CC(=O)N[C@H]1[C@H](O[C@@H]([C@H](O)[C@H](CNc2ccccc2C(N)=O)NC(C)=O)[C@H](O)CO[C@@H]2O[C@@H](C)[C@@H](O)[C@@H](O)[C@@H]2O)O[C@H](CO)[C@@H](O[C@@H]2O[C@H](CO[C@H]3O[C@H](CO)[C@@H](O)[C@H](O)[C@@H]3O)[C@@H](O)[C@H](O[C@H]3O[C@H](CO)[C@@H](O)[C@H](O)[C@@H]3O)[C@@H]2O)[C@@H]1O` [M3N2F, 2-aminobenzamide (2-AB)-labeled trimannosyl core N-glycan (paucimannose) with core α1-6 fucose]: the “% of total loaded recovered from lectin-bound fraction” value at SL2-1 [2] was 91%.
For `CC(=O)N[C@H]1[C@H](O[C@H]2[C@H](O)[C@@H](NC(C)=O)C(O)O[C@@H]2CO[C@@H]2O[C@@H](C)[C@@H](O)[C@@H](O)[C@@H]2O)O[C@H](CO)[C@@H](O[C@@H]2O[C@H](CO[C@H]3O[C@H](CO)[C@@H](O)[C@H](O)[C@@H]3O[C@@H]3O[C@H](CO)[C@@H](O[C@@H]4O[C@H](CO[C@]5(C(=O)O)C[C@H](O)[C@@H](NC(C)=O)[C@H]([C@H](O)[C@H](O)CO)O5)[C@H](O)[C@H](O)[C@H]4O)[C@H](O)[C@H]3NC(C)=O)[C@@H](O)[C@H](O[C@H]3O[C@H](CO)[C@@H](O)[C@H](O)[C@@H]3O[C@@H]3O[C@H](CO)[C@@H](O[C@@H]4O[C@H](CO)[C@H](O)[C@H](O)[C@H]4O)[C@H](O)[C@H]3NC(C)=O)[C@@H]2O)[C@@H]1O` (stereo partly shown) [A1F, monosialo-fucosylated biantennary N-glycan], the Kd (in general, the free concentration of one partner at which half of the binding sites on the other are occupied at equilibrium, for simple one-to-one binding) on SL2-1 [1] (n = 1.85) stood at 1.06 µM.
For `CC(=O)N[C@H]1[C@H](O[C@@H]([C@H](O)[C@H](CNc2ccccc2C(N)=O)NC(C)=O)[C@H](O)CO[C@@H]2O[C@@H](C)[C@@H](O)[C@@H](O)[C@@H]2O)O[C@H](CO)[C@@H](O[C@@H]2O[C@H](CO[C@H]3O[C@H](CO)[C@@H](O)[C@H](O)[C@@H]3O[C@@H]3O[C@H](CO)[C@@H](O[C@@H]4O[C@H](CO)[C@H](O)[C@H](O)[C@H]4O)[C@H](O)[C@H]3NC(C)=O)[C@@H](O)[C@H](O[C@H]3O[C@H](CO)[C@@H](O)[C@H](O)[C@@H]3O[C@@H]3O[C@H](CO)[C@@H](O[C@@H]4O[C@H](CO)[C@H](O)[C@H](O)[C@H]4O)[C@H](O)[C@H]3NC(C)=O)[C@@H]2O)[C@@H]1O` [NA2F, 2-aminobenzamide (2-AB)-labeled asialo-, galactosylated biantennary N-glycan with core α1-6 fucose], the “% of total loaded recovered from lectin-bound fraction” value at SL2-1 [2] was determined as 95%.

The values are drawn from publication PMC5039751, “Profiling of core fucosylated N-glycans using a novel bacterial lectin that specifically recognizes α1,6 fucosylated chitobiose” (Scientific Reports, 2016).
